Results published in US20210115018A1, “PIPERIDINE COMPOUNDS AS COVALENT MENIN INHIBITORS” (THE REGENTS OF THE UNIVERSITY OF MICHIGAN, priority 2018, published 2021).

Tests used:
[1] = test system: MV4-11; experiment: 7-day proliferation assay (WST-8), cell growth inhibition; type: cell-based; details: MV4-11 cells, 7 days
Method: The effect of representative Compounds of the Disclosure on cell viability was determined in a 7-day proliferation assay. Cells were maintained in the appropriate culture medium with 10% FBS at 37° C. and an atmosphere of 5% CO2.
Cells were seeded in 96-well flat bottom (Corning COSTAR, Corning, NY, cat#3595) at a density of 2,000-3,000 cells/well in 100 μl of culture medium. Compounds were serially diluted in the appropriate medium, and […] the diluted compounds were added to the appropriate wells of the cell plate. After the addition of compounds, the cells were incubated at 37° C. in an atmosphere of 5% CO2 for 7 days. Cell viability was determined using the WST (2-(2-methoxy-4-nitrophenyl)-3-(4-nitrophenyl)-5-(2,4-disulfophenyl)-2H-tetrazolium, monosodium salt) Cell Counting-8 Kit (Dojindo Molecular Technologies, Inc., Rockville, Md.) according to the manufacturers' instructions.
WST-8 reagent was added to each well at a final concentration of 10% (v/v), and then the plates were incubated at 37° C. for 1-2 hours for color development. The absorbance was measured at 450 nm using a SPECTRAmax PLUS plate reader (Molecular Devices, Sunnyvale, Calif.). The readings were normalized to the DMSO-treated cells and the half maximal inhibitory concentration (IC50) was calculated by nonlinear regression (four parameters sigmoid fitted with variable slope, least squares fit, and no constraint) analysis using the GraphPad Prism 5 software (GraphPad Software, La Jolla, Calif.).

[2] = target: T1, menin protein (Homo sapiens, UniProt O00255); experiment: Fluorescence polarization (FP) competitive binding assay, menin binding affinity; details: FP competition with FAM-MM2 probe 2 nM, menin 4 nM, 30 minutes room temperature
T1 sequence (O00255 1-610): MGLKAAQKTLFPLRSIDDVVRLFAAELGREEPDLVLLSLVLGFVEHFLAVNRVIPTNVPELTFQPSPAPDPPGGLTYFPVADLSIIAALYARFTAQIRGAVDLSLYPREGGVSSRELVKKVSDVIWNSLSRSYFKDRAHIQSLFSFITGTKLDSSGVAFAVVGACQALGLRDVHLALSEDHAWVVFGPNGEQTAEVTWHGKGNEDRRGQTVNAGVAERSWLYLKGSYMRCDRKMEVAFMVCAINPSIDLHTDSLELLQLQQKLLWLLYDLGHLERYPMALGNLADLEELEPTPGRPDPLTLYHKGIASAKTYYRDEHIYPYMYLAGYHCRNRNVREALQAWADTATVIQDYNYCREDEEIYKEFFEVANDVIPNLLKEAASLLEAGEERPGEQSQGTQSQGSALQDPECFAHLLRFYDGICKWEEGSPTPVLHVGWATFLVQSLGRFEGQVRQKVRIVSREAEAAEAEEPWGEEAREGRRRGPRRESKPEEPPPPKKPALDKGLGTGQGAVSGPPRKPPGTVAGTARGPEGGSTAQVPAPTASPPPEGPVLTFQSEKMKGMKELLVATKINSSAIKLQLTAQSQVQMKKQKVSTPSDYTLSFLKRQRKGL
Method: A fluorescence polarization (FP) competitive binding assay was used to determine the binding affinities of representative menin inhibitors. A FAM labeled fluorescent probe was designed and synthesized based on a MLL1 peptide (FAM-MM2). Equilibrium dissociation constant (Kd) value of FAM-MM2 to menin protein was determined from protein saturation experiments by monitoring the total fluorescence polarization of mixtures composed with the fluorescent probe at a fixed concentration and the protein with increasing concentrations up to full saturation. Serial dilutions of the protein were mixed with FAM-MM2 to a final volume of 200 μl in the assay buffer (PBS with 0.02% Bovine γ-Globulin and 4% DMSO. 0.01% Triton X-100 was added right before assays). Final FAM-MM2 concentration was 2 nM. Plates were incubated at room temperature for 30 minutes with gentle shaking to assure equilibrium. FP values in millipolarization units (mP) were measured using the Infinite M-1000 plate reader (Tecan U.S., Research Triangle Park, N.C.) in Microfluor 1 96-well, black, v-bottom plates (Thermo Scientific, Waltham, Mass.) at an excitation wavelength of 485 nm and an emission wavelength of 530 nm.
The IC50 of representative Compounds of the Disclosure, see Table 3, were determined in a competitive binding experiment. Mixtures of 5 μl of the tested compounds in DMSO and 195 μl of preincubated protein/probe complex solution in the assay buffer were added into assay plates which were incubated at room temperature for 30 minutes with gentle shaking. Final concentration of the menin protein was 4 nM, and final probe concentration is 2 nM. Negative controls containing protein/probe complex only (equivalent to 0% inhibition), and positive controls containing only free probes (equivalent to 100% inhibition), were included in each assay plate. FP values were measured as described above. IC50 values were determined by nonlinear regression fitting of the competition curves.

SMILES	IC50 ([1]; Homo sapiens, MV4-11, 168 h)	IC50 [2]	IC50 [1]
COC(=O)N[C@H]1CCC[C@@H]1[C@](CN1CCC1)(c1cccc(F)c1)C1CCN(CC2CN(c3ccc(S(=O)(=O)C4CN(C(=O)/C=C/CN5CCC(F)(F)CC5)C4)cc3)C2)CC1 [compound 103]	< 10 nM	2 nM	–
COC(=O)N[C@H]1CCC[C@@H]1[C@](CN1CCC1)(c1cccc(F)c1)C1CCN(CC2CN(c3ccc(C(F)(F)C4CN(C(=O)/C=C/CN5CCCCC5)C4)cc3)C2)CC1 [compound 71]	< 50 nM	2 nM	–
C=CC(=O)Nc1cncc(S(=O)(=O)c2ccc(N3CC(F)(CN4CCC([C@@](CN5CCC5)(c5cccc(F)c5)[C@H]5CCC[C@@H]5NC(=O)OC)CC4)C3)c(F)c2)c1 [compound 86]	–	2 nM	< 50 nM
C=C(CN1CCOCC1)C(=O)N1CC(S(=O)(=O)c2ccc(N3CC(CN4CCC([C@@](CN5CCC5)(c5cccc(F)c5)[C@H]5CCC[C@@H]5NC(=O)OC)CC4)C3)cc2)C1 [Cpd. No. 9, methyl ((1S,2R)-2-((S)-2-(azetidin-1-yl)-1-(3-fluorophenyl)-1-(1-((1-(4-((1-(2-(morpholinomethyl)acryloyl)azetidin-3-yl)sulfonyl)phenyl)azetidin-3-yl)methyl)piperidin-4-yl)ethyl)cyclopentyl)carbamate]	< 10 nM	2 nM	–
COC(=O)N[C@H]1CCC[C@@H]1[C@](CN1CCC1)(c1cc(F)cc(F)c1)C1CCN(CC2(F)CN(c3ccc(S(=O)(=O)C4CN(C(=O)/C=C/CN(C)C)C4)cc3)C2)CC1 [Cpd. No. 11, methyl ((1S,2R)-2-((S)-2-(azetidin-1-yl)-1-(3,5-difluorophenyl)-1-(1-((1-(4-((1-((E)-4-(dimethylamino)but-2-enoyl)azetidin-3-yl)sulfonyl)phenyl)-3-fluoroazetidin-3-yl)methyl)piperidin-4-yl)ethyl)cyclopentyl)carbamate]	–	2 nM	–
COC(=O)N[C@H]1CCC[C@@H]1[C@](CN1CCOCC1)(c1cccc(F)c1)C1CCN(CC2CN(c3ccc(S(=O)(=O)C4CN(C(=O)/C=C/CN(C)C)C4)cc3)C2)CC1 [Cpd. No. 6, methyl ((1S,2R)-2-((S)-1-(1-((1-(4-((1-((E)-4-(dimethylamino)but-2-enoyl)azetidin-3-yl)sulfonyl)phenyl)azetidin-3-yl)methyl)piperidin-4-yl)-1-(3-fluorophenyl)-2-morpholinoethyl)cyclopentyl)carbamate]	–	2 nM	–
C=CC(=O)N1CC(S(=O)(=O)c2ccc(N3CC(F)(CN4CCC([C@@](CN5CCC5)(c5cccc(F)c5)[C@H]5CCC[C@@H]5NC(=O)OC)CC4)C3)cc2)C1 [Cpd. No. 16, methyl ((1S,2R)-2-((S)-1-(1-((1-(4-((1-acryloylazetidin-3-yl)sulfonyl)phenyl)-3-fluoroazetidin-3-yl)methyl)piperidin-4-yl)-2-(azetidin-1-yl)-1-(3-fluorophenyl)ethyl)cyclopentyl)carbamate]	–	3 nM	–
C=CC(=O)N1CC(S(=O)(=O)c2ccc(N3CC(CN4CCC([C@@](CN5CCC5)(c5cccc(F)c5)[C@H]5CCC[C@@H]5NC(=O)OC)CC4)C3)cc2)C1 [Cpd. No. 14, methyl ((1S,2R)-2-((S)-1-(1-((1-(4-((1-acryloylazetidin-3-yl)sulfonyl)phenyl)azetidin-3-yl)methyl)piperidin-4-yl)-2-(azetidin-1-yl)-1-(3-fluorophenyl)ethyl)cyclopentyl)carbamate]	–	2 nM	–
C=CC(=O)N1CCN(C(C)=O)CC(S(=O)(=O)c2ccc(N3CC(CN4CCC([C@@](CN5CCC5)(c5cccc(F)c5)[C@H]5CCC[C@@H]5NC(=O)OC)CC4)(OC)C3)cc2)C1 (stereo partly drawn) [compound 241]	–	10 nM	–
C=CC(=O)N1CCN(C(C)=O)[C@H](CS(=O)(=O)c2ccc(N3CC(CN4CCC([C@@](CN5CCC5)(c5cccc(F)c5)[C@H]5CCC[C@@H]5NC(=O)OC)CC4)(OC)C3)cc2)C1 [compound 238]	–	7 nM	–
C=C(CN1CCOCC1)C(=O)N1CC(S(=O)(=O)c2ccc(N3CC(CN4CCC([C@@](C#N)(c5cccc(F)c5)[C@H]5CCC[C@@H]5NC(=O)OC)CC4)C3)cc2)C1 [Cpd. No. 28, methyl ((1S,2R)-2-((S)-cyano(3-fluorophenyl)(1-((1-(4-((1-(2-(morpholinomethyl)acryloyl)azetidin-3-yl)sulfonyl)phenyl)azetidin-3-yl)methyl)piperidin-4-yl)methyl)cyclopentyl)carbamate]	–	2 nM	–
COC(=O)N[C@H]1CCC[C@@H]1[C@](CN1CCCCC1)(c1cccc(F)c1)C1CCN(CC2CN(c3ccc(S(=O)(=O)C4CN(C(=O)/C=C/CN(C)C)C4)cc3)C2)CC1 [Cpd. No. 4, methyl ((1S,2R)-2-((S)-1-(1-((1-(4-((1-((E)-4-(dimethylamino)but-2-enoyl)azetidin-3-yl)sulfonyl)phenyl)azetidin-3-yl)methyl)piperidin-4-yl)-1-(3-fluorophenyl)-2-(piperidin-1-yl)ethyl)cyclopentyl)carbamate]	–	2 nM	–
C=C(CN1CCOCC1)C(=O)N1CC(S(=O)(=O)c2ccc(N3CC(CN4CCC([C@](CN5CCC5)(c5cccc(F)c5)[C@H]5CCC[C@@H]5NC(=O)OC)CC4)C3)cc2)C1 [Cpd. No. 27, methyl ((1S,2R)-2-((R)-2-(azetidin-1-yl)-1-(3-fluorophenyl)-1-(1-((1-(4-((1-(2-(morpholinomethyl)acryloyl)azetidin-3-yl)sulfonyl)phenyl)azetidin-3-yl)methyl)piperidin-4-yl)ethyl)cyclopentyl)carbamate]	–	4 nM	–
C=C(CN1CCOCC1)C(=O)N1CC(S(=O)(=O)c2cccc(N3CC(CN4CCC([C@@](CN5CCC5)(c5cccc(F)c5)[C@H]5CCC[C@@H]5NC(=O)OC)CC4)C3)c2)C1 [Cpd. No. 30, methyl ((1S,2R)-2-((S)-2-(azetidin-1-yl)-1-(3-fluorophenyl)-1-(1-((1-(3-((1-(2-(morpholinomethyl)acroyloyl)azetidin-3-yl)sulfonyl)phenyl)azetidin-3-yl)methyl)piperidin-4-yl)ethyl)cyclopentyl)carbamate]	–	5 nM	–
C=CC(=O)N1CCN(C(C)=O)[C@@H](CS(=O)(=O)c2ccc(N3CC(CN4CCC([C@@](CN5CCC5)(c5cccc(F)c5)[C@H]5CCC[C@@H]5NC(=O)OC)CC4)(OC)C3)cc2)C1 [compound 239]	–	6 nM	–
C=C(CN1CCCCC1)C(=O)N1CC(S(=O)(=O)c2ccc(N3CC(CN4CCC([C@@](C#N)(c5cccc(F)c5)[C@H]5CCC[C@@H]5NC(=O)OC)CC4)C3)cc2)C1 [Cpd. No. 29, methyl ((1S,2R)-2-((S)-cyano(3-fluorophenyl)(1-((1-(4-((1-(2-(piperidin-1-ylmethyl)acryloyl)azetidin-3-yl)sulfonyl)phenyl)azetidin-3-yl)methyl)piperidin-4-yl)methyl)cyclopentyl)carbamate]	–	2 nM	–
C=CC(=O)N1CCCC[C@H](S(=O)(=O)c2ccc(N3CC(CN4CCC([C@@](CN5CCC5)(c5cccc(F)c5)[C@H]5CCC[C@@H]5NC(=O)OC)CC4)(OC)C3)cc2)C1 [compound 234]	–	4 nM	–
